According to US20240018124A1, “MODULATORS OF FPR1 AND METHODS OF USING THE SAME” (BIOFRONT LTD, priority 2021, published 2024):

Assays:
FPR1 [1] = biological target: T1, FPR1 (Homo sapiens (Human), UniProt P21462); assay: Reactive oxygen species (ROS) assay in human neutrophils stimulated with fMLP; format: cell-based; conditions: human neutrophils from whole blood; fMLP (500 nM); DCFH-DA fluorescence; read-out: Anti-ROS IC50
Description: Reactive Oxygen Species (ROS) Assay
Human whole blood was collected, and ACK lysis buffer (ThermoFisher, A1049201) was added at 3 times the volume of the blood sample to lyse the red blood cells. The sample was incubated on ice for 15 minutes, and gently mixed twice during the incubation. 10 mL DPBS was then added, and the sample was centrifuged for 8 minutes. After removing the supernatant, remaining cells were resuspended in RPMI1640 medium containing 3% FBS and centrifuged again for 10 minutes. After removing the supernatant, cells were again resuspended in RPMI1640 medium containing 3% FBS. Neutrophil cell count was determined using FACS analysis by APC-labeled CD11b antibody (Biolegend, 101211) and FITC-labeled CD66b antibody (Biolegend, 305104). Neutrophils were then plated into 96-well plates (300,000/well). Plates were centrifuged and supernatant was removed. Cells were resuspended in 80 μL of compound solution (prepared in RPMI1640 medium containing 3% FBS), then incubated at room temperature for 15 minutes. 20 μL solution containing DCFH-DA (at the manufacturer's recommended concentration, Yeasen Biotechnology, 50101ES01) and fMLP (500 nM) was then added. Cells were incubated at 37° C. in 5% CO2 for 20 minutes away from light. After incubation, cells were placed on ice for 5 minutes, washed twice with 200 μL ice-cold DPBS, then resuspended in ice-cold DPBS at 100 µL/well. Fluorescence from each sample was measured at 485 nm excitation and 535 nm emission.
(§1) The effects of the compounds of the present disclosure on regulating the FPR1-mediated cell signaling were measured by monitoring the cellular cAMP level change and anti-reactive oxygen species formation in human neutrophils in the presence of an FPR1 agonist, respectively, as illustrated by the examples in Table 1.

FPR1 [2] = biological target: T1, FPR1; assay: Cyclic adenosine monophosphate (cAMP) assay, CHO-K1 cells stably overexpressing hFPR1; format: cell-based; conditions: 2.5 μM Forskolin and 0.25 nM WKYMVm (FPR1 agonist)
Description: Cyclic Adenosine Monophosphate (cAMP) Assay
CHO-K1 cells stably overexpressing hFPR1 were plated into 384-well cell culture plates (2,000/well/5 μL) in 1× Stimulation Buffer (LANCE Ultra cAMP Kit, Perkin Elmer, TRF0263). 1 μL compound solution (prepared in ddH2O containing 0.2% DMSO) was added to each well. Plates were centrifuged briefly, and cells were incubated at 37° C. in 5% CO2 for 10 minutes. 4 μL solution containing 2.5 μM Forskolin and 0.25 nM WKYMVm (an FPR1 agonist, GLPBIO, GC15140) was then added to each well. 5 μL of Eu-cAMP solution (diluted to manufacturer's recommended working concentration in Detection Buffer, LANCE Ultra cAMP Kit) and 5 μL of ULight-anti-cAMP solution (diluted in Detection Buffer, LANCE Ultra cAMP Kit) were added to each well. Plates were centrifuged briefly, and cells were incubated at room temperature for 1 hour. Fluorescence emission at 665 nm and 620 nm from the samples was measured by a Perkin Elmer Envision instrument.
as §1

T1 sequence (P21462 whole entry): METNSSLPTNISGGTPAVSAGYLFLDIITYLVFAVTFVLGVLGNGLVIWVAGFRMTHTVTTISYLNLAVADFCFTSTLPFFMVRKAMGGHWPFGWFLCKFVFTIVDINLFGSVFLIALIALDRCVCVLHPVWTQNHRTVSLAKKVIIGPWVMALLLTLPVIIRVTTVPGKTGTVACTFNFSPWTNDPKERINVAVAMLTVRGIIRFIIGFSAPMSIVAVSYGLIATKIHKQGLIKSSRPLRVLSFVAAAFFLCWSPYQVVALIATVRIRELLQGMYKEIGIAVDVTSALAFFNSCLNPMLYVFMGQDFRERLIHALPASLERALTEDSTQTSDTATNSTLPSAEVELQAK

| SMILES | IC50 (FPR1 [1]) [nM] | IC50 (FPR1 [2]) [nM] |
| --- | --- | --- |
| C[C@H](NC(=O)c1c(NS(=O)(=O)c2ccc(Cl)cc2)c(C2=CCC3(CC2)OCCO3)nn1C)C(C)(C)C [Compound 24, (S)-4-((4-chlorophenyl)sulfonamido)-N-(3,3-dimethylbutan-2-yl)-1-methyl-3-(1,4-dioxaspiro[4.5]dec-7-en-8-yl)-1H-pyrazole-5-carboxamide] | 1000 to 25000 | 1000 to 25000 |
| C[C@H](NC(=O)c1c(NS(=O)(=O)c2ccc(C3CC3)cc2)c(-c2ccc(F)cc2)nn1C)C(C)(C)C [Compound 26, (S)-4-((4-cyclopropylphenyl)sulfonamido)-N-(3,3-dimethylbutan-2-yl)-3-(4-fluorophenyl)-1-methyl-1H-pyrazole-5-carboxamide] | 100 to 1000 | 1000 to 25000 |
| COc1ccc(S(=O)(=O)Nc2c(-c3ccc(F)cc3)nn(C)c2C(=O)N[C@@H](C)C(C)(C)C)cc1 [Compound 27, (S)—N-(3,3-dimethylbutan-2-yl)-3-(4-fluorophenyl)-4-((4-methoxyphenyl)sulfonamido)-1-methyl-1H-pyrazole-5-carboxamide] | 100 to 1000 | 100 to 1000 |
| C[C@H](NC(=O)c1c(NS(=O)(=O)c2ccc(C#N)cc2F)c(-c2ccc(F)cc2)nn1C)C(C)(C)C [Compound 28, (S)-4-((4-cyano-2-fluorophenyl)sulfonamido)-N-(3,3-dimethylbutan-2-yl)-3-(4-fluorophenyl)-1-methyl-1H-pyrazole-5-carboxamide] | 100 to 1000 | 100 to 1000 |
| COCc1ccccc1-c1nn(C)c(C(=O)N[C@@H](C)C(C)(C)C)c1NS(=O)(=O)c1ccc(C)cc1 [Compound 33, (S)—N-(3,3-dimethylbutan-2-yl)-3-(2-(methoxymethyl)phenyl)-1-methyl-4-((4-methylphenyl)sulfonamido)-1H-pyrazole-5-carboxamide] | 100 to 1000 | 100 to 1000 |
| C[C@H](NC(=O)c1c(NS(=O)(=O)c2ccc(Cl)cc2)c(-c2ccc(F)cc2)nn1C)C(C)(C)C [Compound 38, (S)-4-((4-chlorophenyl)sulfonamido)-N-(3,3-dimethylbutan-2-yl)-3-(4-fluorophenyl)-1-methyl-1H-pyrazole-5-carboxamide] | 100 to 1000 | 100 to 1000 |
| C[C@H](NC(=O)c1c(NS(=O)(=O)c2ccc(C#N)cc2)c(-c2ccc(F)cc2F)nn1C)C(C)(C)C [Compound 41, (S)-4-((4-cyanophenyl)sulfonamido)-3-(2,4-difluorophenyl)-N-(3,3-dimethylbutan-2-yl)-1-methyl-1H-pyrazole-5-carboxamide] | 100 to 1000 | 100 to 1000 |

The next lines start with the values.

| IC50 (FPR1 [1]) [nM] | IC50 (FPR1 [2]) [nM] | SMILES |
| --- | --- | --- |
| 100 to 1000 | 100 to 1000 | C[C@H](NC(=O)c1c(NS(=O)(=O)c2ccc(C#N)cc2)c(C2CCOCC2)nn1C)C(C)(C)C [Compound 25, (S)-4-((4-cyanophenyl)sulfonamido)-N-(3,3-dimethylbutan-2-yl)-1-methyl-3-(tetrahydro-2H-pyran-4-yl)-1H-pyrazole-5-carboxamide] |
| 100 to 1000 | 100 to 1000 | C[C@H](NC(=O)c1c(NS(=O)(=O)c2ccc(Cl)cc2)c(C2CCC(F)(F)CC2)nn1C)C(C)(C)C [Compound 37, (S)-4-((4-chlorophenyl)sulfonamido)-3-(4,4-difluorocyclohexyl)-N-(3,3-dimethylbutan-2-yl)-1-methyl-1H-pyrazole-5-carboxamide] |
| 100 to 1000 | 100 to 1000 | C[C@H](NC(=O)c1c(NS(=O)(=O)c2ccc(Cl)cc2)c(-c2ccccc2C(F)F)nn1C)C(C)(C)C [Compound 39, (S)-4-((4-chlorophenyl)sulfonamido)-3-(2-(difluoromethyl)phenyl)-N-(3,3-dimethylbutan-2-yl)-1-methyl-1H-pyrazole-5-carboxamide] |
| > 25000 | > 25000 | COCc1ncccc1-c1nn(C)c(C(=O)N[C@@H](C)C(C)(C)C)c1NS(=O)(=O)c1ccc(C#N)cc1 [Compound 42, (S)-4-((4-cyanophenyl)sulfonamido)-N-(3,3-dimethylbutan-2-yl)-3-(2-(methoxymethyl)pyridin-3-yl)-1-methyl-1H-pyrazole-5-carboxamide] |
| 100 to 1000 | 1000 to 25000 | C[C@H](NC(=O)c1c(NS(=O)(=O)c2ccc(C#N)cc2)c(C2=CCC(F)(F)CC2)nn1C)C(C)(C)C [Compound 43, (S)-4-((4-cyanophenyl)sulfonamido)-3-(4,4-difluorocyclohex-1-en-1-yl)-N-(3,3-dimethylbutan-2-yl)-1-methyl-1H-pyrazole-5-carboxamide] |
| 100 to 1000 | 100 to 1000 | C[C@H](NC(=O)c1c(NS(=O)(=O)c2ccc(C#N)cc2)c(C2CCC(F)(F)CC2)nn1C)C(C)(C)C [Compound 44, (S)-4-((4-cyanophenyl)sulfonamido)-3-(4,4-difluorocyclohexyl)-N-(3,3-dimethylbutan-2-yl)-1-methyl-1H-pyrazole-5-carboxamide] |
